Data published in US20250090540A1, “PI3K-ALPHA INHIBITORS AND METHODS OF USE THEREOF” (Relay Therapeutics, Inc., priority 2021, published 2025).

These compounds were tested against H1047R PIK3CA enzyme (Homo sapiens, UniProt P42336, H1047R) (assay: ADP-Glo Biochemical PIK3CA Kinase Assay).
Method: Compounds to be assayed were plated in 16 doses of 1:2 serial dilutions (20 nL volume each well) on a 1536-well plate, and the plate warmed to room temperature. PIK3CA enzyme (e.g. H1047R, E542K, E545K, or wild-type) (1 μL of 2 nM solution in Enzyme Assay Buffer (comprising 50 mM HEPES pH 7.4, 50 mM NaCl, 6 mM MgCl2, 5 mM DTT and 0.03% CHAPS)) was added and shaken for 10 seconds and preincubated for 30 minutes. To the well was added 1 μL of 200 μM ATP and 20 μM of diC8-PIP2 in Substrate Assay Buffer (50 mM HEPES pH7.4, 50 mM NaCl, 5 mM DTT and 0.03% CHAPS) to start the reaction, and the plate was shaken for 10 seconds, then spun briefly at 1500 rpm, and then incubated for 60 minutes at room temperature. The reaction was stopped by adding 2 μL of ADP-Glo reagent (Promega), and spinning briefly at 1500 rpm, and then incubating for 40 minutes. ADP-Glo Detection reagent (Promega) was added and the plate spun briefly at 1500 rpm, then incubated for 30 minutes.

Chain of H1047R PIK3CA enzyme (P42336 whole entry H1047R): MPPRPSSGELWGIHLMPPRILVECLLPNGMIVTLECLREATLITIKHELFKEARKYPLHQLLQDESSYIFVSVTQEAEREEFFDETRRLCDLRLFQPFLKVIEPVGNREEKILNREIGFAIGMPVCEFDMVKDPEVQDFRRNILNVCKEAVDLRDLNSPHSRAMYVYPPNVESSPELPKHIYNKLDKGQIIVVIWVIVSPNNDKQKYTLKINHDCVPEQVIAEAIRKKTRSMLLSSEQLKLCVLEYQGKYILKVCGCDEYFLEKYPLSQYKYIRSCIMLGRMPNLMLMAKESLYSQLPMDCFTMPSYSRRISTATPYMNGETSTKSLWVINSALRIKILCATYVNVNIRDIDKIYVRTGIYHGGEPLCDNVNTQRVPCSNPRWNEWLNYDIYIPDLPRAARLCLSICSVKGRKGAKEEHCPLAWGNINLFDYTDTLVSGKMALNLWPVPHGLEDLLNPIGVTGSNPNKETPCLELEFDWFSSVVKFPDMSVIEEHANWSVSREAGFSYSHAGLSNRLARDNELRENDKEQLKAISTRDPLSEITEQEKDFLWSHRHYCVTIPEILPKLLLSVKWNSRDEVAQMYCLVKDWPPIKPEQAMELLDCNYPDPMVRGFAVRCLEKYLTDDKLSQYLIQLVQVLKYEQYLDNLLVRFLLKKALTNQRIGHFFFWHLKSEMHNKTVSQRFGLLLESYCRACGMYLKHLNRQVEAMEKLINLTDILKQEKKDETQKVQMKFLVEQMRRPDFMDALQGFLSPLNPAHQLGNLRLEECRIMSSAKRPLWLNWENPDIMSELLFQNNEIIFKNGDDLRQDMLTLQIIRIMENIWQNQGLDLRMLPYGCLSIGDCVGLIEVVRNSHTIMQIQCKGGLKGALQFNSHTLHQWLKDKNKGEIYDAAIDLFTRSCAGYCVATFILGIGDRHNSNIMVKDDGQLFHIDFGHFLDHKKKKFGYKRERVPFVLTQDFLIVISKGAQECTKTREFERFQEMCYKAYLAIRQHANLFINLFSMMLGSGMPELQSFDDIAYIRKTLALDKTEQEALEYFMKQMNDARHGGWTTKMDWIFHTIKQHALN
Chain of H1047R PIK3CA enzyme (P27986 whole entry partner): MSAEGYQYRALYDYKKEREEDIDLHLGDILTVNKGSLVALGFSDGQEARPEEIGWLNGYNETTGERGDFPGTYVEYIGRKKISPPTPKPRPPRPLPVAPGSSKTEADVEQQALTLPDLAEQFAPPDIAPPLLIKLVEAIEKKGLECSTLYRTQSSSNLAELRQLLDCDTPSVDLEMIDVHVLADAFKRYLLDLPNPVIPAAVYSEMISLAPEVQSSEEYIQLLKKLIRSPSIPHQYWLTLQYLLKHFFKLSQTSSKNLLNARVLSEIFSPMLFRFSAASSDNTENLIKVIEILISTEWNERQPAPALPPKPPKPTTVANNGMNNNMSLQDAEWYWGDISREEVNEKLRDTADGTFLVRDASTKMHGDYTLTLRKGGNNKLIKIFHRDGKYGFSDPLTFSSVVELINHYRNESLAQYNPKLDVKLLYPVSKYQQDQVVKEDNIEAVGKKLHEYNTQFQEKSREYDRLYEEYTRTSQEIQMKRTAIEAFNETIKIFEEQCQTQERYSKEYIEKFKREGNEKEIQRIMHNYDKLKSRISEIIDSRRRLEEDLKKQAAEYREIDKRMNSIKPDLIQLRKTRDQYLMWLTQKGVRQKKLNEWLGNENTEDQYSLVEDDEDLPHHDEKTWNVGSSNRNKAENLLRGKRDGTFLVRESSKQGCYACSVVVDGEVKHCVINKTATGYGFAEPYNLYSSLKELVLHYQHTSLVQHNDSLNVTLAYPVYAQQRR

| SMILES | IC50 |
| --- | --- |
| Cc1ccccc1Nc1ncc(CO)cc1NC(=O)c1cc(F)cc(C(F)(F)F)c1 [I-63] | 1 to 10 µM |
| CNC(=O)c1cnc(Nc2ccccc2C)c(NC(=O)c2cccc(C(F)(F)F)c2)c1 [I-66] | 1 to 10 µM |
| Cc1ccccc1Nc1ncc(C(=O)NS(C)(=O)=O)cc1NC(=O)c1cc(F)cc(C(F)(F)F)c1 [I-69] | 10 to 100 µM |
| Cc1ccccc1Nc1ncc(N)cc1NC(=O)c1cc(F)cc(C(F)(F)F)c1 [I-70] | 1 to 10 µM |
| CNc1ncc(-c2cnn(C)c2)cc1NC(=O)c1cc(F)cc(C(F)(F)F)c1 [I-71] | 10 to 100 µM |
| Cc1ccccc1Nc1ncc(N2CC(N)C2)cc1NC(=O)c1cc(F)cc(C(F)(F)F)c1 [I-73] | 1 to 10 µM |
| Cc1ccccc1Nc1ncc(-c2ccn[nH]2)cc1NC(=O)c1cc(F)cc(C(F)(F)F)c1 [I-74] | 1 to 10 µM |
| Cc1ccccc1Nc1ncc(-c2ccc(CNC(=O)OC(C)(C)C)cc2)cc1NC(=O)c1cc(F)cc(C(F)(F)F)c1 [I-76] | 1 to 10 µM |
| Cc1ccccc1Nc1ncc(-c2cccnc2)cc1NC(=O)c1cc(F)cc(C(F)(F)F)c1 [I-77] | 1 to 10 µM |
| Cc1ccccc1Nc1ncc(-c2c(C)noc2C)cc1NC(=O)c1cc(F)cc(C(F)(F)F)c1 [I-78] | 0.5 to 1 µM |
| Cc1ccccc1Nc1ncc(-c2ccc(NC(=O)OC(C)(C)C)cc2)cc1NC(=O)c1cc(F)cc(C(F)(F)F)c1 [I-80] | 1 to 10 µM |
| Cc1ccccc1Nc1ncc(-c2cn[nH]c2)cc1NC(=O)c1cc(F)cc(C(F)(F)F)c1 [I-81] | 1 to 10 µM |
| Cc1ccccc1Nc1ncc(-c2ccccc2C#N)cc1NC(=O)c1cc(F)cc(C(F)(F)F)c1 [I-83] | 0.5 to 1 µM |
| CNC(=O)c1cnc(Nc2ccccc2C)c(NCc2cc(F)cc(C(F)(F)F)c2)c1 [I-85] | 10 to 100 µM |
| Cc1ccccc1Nc1ncc(C(=O)NCCO)cc1NC(=O)c1cc(F)cc(C(F)(F)F)c1 [I-86] | 0.5 to 1 µM |
| CNC(=O)c1cnc(Nc2ccccc2C)c(NC(=O)c2c[nH]c3ccccc23)c1 [I-87] | 10 to 100 µM |
| Cc1ccccc1Nc1ncc(-c2cnn(C3CCOCC3)c2)cc1NC(=O)c1cc(F)cc(C(F)(F)F)c1 [I-88] | 0.5 to 1 µM |
| Cc1ccccc1Nc1ncc(-c2cnn(C)c2)cc1NC(=O)c1cccn2nccc12 [I-89] | 10 to 100 µM |
| Cc1ccccc1Nc1ncc(-c2cnn(C3CCN(C(=O)OC(C)(C)C)CC3)c2)cc1NC(=O)c1cc(F)cc(C(F)(F)F)c1 [I-90] | 1 to 10 µM |
| Cc1ccccc1Nc1ncc(-c2cnn(C3CCNCC3)c2)cc1NC(=O)c1cc(F)cc(C(F)(F)F)c1 [I-91] | 0.5 to 1 µM |
| Cc1ccccc1Nc1ncc(-c2cnn(C)c2)cc1NC(=O)N1CCOc2ccccc21 [I-92] | 10 to 100 µM |

| SMILES | IC50 |
| --- | --- |
| COc1cc(F)cc(C(=O)Nc2cc(-c3cnn(C)c3)cnc2Nc2ccccc2C)c1 [I-94] | 10 to 100 µM |
| Cc1cc(F)cc(C(=O)Nc2cc(-c3cnn(C)c3)cnc2Nc2ccccc2C)c1 [I-95] | 1 to 10 µM |
| Cc1ccccc1Nc1ncc(-c2cnn(C)c2)cc1NC(=O)c1cc(F)cc(Br)c1 [I-96] | 0.5 to 1 µM |
| Cc1ccccc1Nc1ncc(-c2cnn(C)c2)cc1NC(=O)c1cc(F)cc(Cl)c1 [I-97] | 0.5 to 1 µM |
| Cc1ccccc1Nc1ncc(-c2cnn(C)c2)cc1NC(=O)c1ccnc2c1ccn2C [I-98] | 10 to 100 µM |
| Cc1ccccc1Nc1ncc(-c2cnn(C)c2)cc1NC(=O)c1cccc(Br)c1 [I-99] | 1 to 10 µM |
| Cc1ccccc1Nc1ncc(-c2cnn(C)c2)cc1NC(=O)c1cccc2c1cnn2C [I-100] | 10 to 100 µM |
| Cc1ccccc1Nc1ncc(-c2cnn(C)c2)cc1NC(=O)c1cc(F)cc(F)c1 [I-101] | 1 to 10 µM |
| Cc1ccccc1Nc1ncc(-c2cnn(C)c2)cc1NC(=O)c1ccc(F)c(C(F)(F)F)c1 [I-102] | 1 to 10 µM |
| Cc1ccccc1Nc1ncc(-c2cnn(C)c2)cc1NC(=O)c1ccc2cc[nH]c2c1 [I-103] | 10 to 100 µM |
| Cc1ccccc1Nc1ncc(-c2cnn(C)c2)cc1NC(=O)c1ccc(Cl)c(Cl)c1 [I-104] | 1 to 10 µM |
| Cc1ccccc1Nc1ncc(-c2cnn(C)c2)cc1NC(=O)c1cccc2ccncc12 [I-105] | 10 to 100 µM |
| Cc1ccccc1Nc1ncc(-c2cnn(C)c2)cc1NC(=O)c1ccc(C#N)cc1 [I-106] | 10 to 100 µM |
| Cc1ccccc1Nc1ncc(-c2cnn(C)c2)cc1NC(=O)c1ccccc1C(F)(F)F [I-107] | 10 to 100 µM |
| Cc1ccccc1Nc1ncc(-c2cnn(C)c2)cc1NC(=O)c1ccc2[nH]ncc2c1 [I-108] | 10 to 100 µM |
| Cc1ccc(C(=O)Nc2cc(-c3cnn(C)c3)cnc2Nc2ccccc2C)cc1 [I-109] | 10 to 100 µM |
| Cc1ccccc1Nc1ncc(-c2cnn(C)c2)cc1NC(=O)c1cccc(C(F)(F)F)c1 [I-110] | 1 to 10 µM |
| Cc1ccccc1Nc1ncc(-c2cnn(C)c2)cc1NC(=O)c1ccccc1OC(F)(F)F [I-111] | 10 to 100 µM |
| Cc1ccccc1Nc1ncc(-c2cnn(C)c2)cc1NC(=O)c1cccc2nn(C)cc12 [I-112] | 10 to 100 µM |
| Cc1ccccc1Nc1ncc(-c2cnn(C)c2)cc1NC(=O)c1cccc2ccccc12 [I-113] | 10 to 100 µM |
| CC(=O)Nc1ccc(C(=O)Nc2cc(-c3cnn(C)c3)cnc2Nc2ccccc2C)cc1 [I-114] | 10 to 100 µM |

| SMILES | IC50 |
| --- | --- |
| Cc1cccc(C(=O)Nc2cc(-c3cnn(C)c3)cnc2Nc2ccccc2C)c1 [I-115] | 10 to 100 µM |
| Cc1ccccc1Nc1ncc(-c2cnn(C)c2)cc1NC(=O)c1cccc(C#N)c1 [I-116] | 10 to 100 µM |
| Cc1ccccc1Nc1ncc(-c2cnn(C)c2)cc1NC(=O)c1ccc(C(F)(F)F)cc1 [I-117] | 10 to 100 µM |
| Cc1ccccc1Nc1ncc(-c2cnn(C)c2)cc1NC(=O)c1cccc(S(C)(=O)=O)c1 [I-118] | 10 to 100 µM |
| Cc1ccccc1Nc1ncc(-c2cnn(C)c2)cc1NC(=O)c1cccc2cnccc12 [I-119] | 10 to 100 µM |
| Cc1ccccc1Nc1ncc(-c2cnn(C)c2)cc1NC(=O)c1cccc(N(C)C)c1 [I-120] | 10 to 100 µM |
| Cc1ccccc1Nc1ncc(-c2cnn(C)c2)cc1NC(=O)c1cccc2cn(C)nc12 [I-121] | 10 to 100 µM |
| Cc1ccccc1Nc1ncc(-c2cnn(C)c2)cc1NC(=O)c1ccc(OC(F)(F)F)cc1 [I-122] | 10 to 100 µM |
| Cc1ccccc1Nc1ncc(-c2cnn(C)c2)cc1NC(=O)c1ccc(S(C)(=O)=O)cc1 [I-123] | 10 to 100 µM |
| COc1cccc(C(=O)Nc2cc(-c3cnn(C)c3)cnc2Nc2ccccc2C)c1 [I-124] | 10 to 100 µM |
| Cc1ccccc1Nc1ncc(-c2cnn(C)c2)cc1NC(=O)c1cccc2cccnc12 [I-125] | 10 to 100 µM |
| COc1ccc(C(=O)Nc2cc(-c3cnn(C)c3)cnc2Nc2ccccc2C)cc1 [I-126] | 10 to 100 µM |
| Cc1ccccc1Nc1ncc(-c2cnn(C)c2)cc1NC(=O)c1ccccc1C [I-127] | 10 to 100 µM |
| Cc1ccccc1Nc1ncc(-c2cnn(C)c2)cc1NC(=O)c1ccccc1S(C)(=O)=O [I-128] | 10 to 100 µM |
| Cc1ccccc1Nc1ncc(-c2cnn(C)c2)cc1NC(=O)c1ccc(S(N)(=O)=O)cc1 [I-129] | 10 to 100 µM |
| Cc1ccccc1Nc1ncc(-c2cnn(C)c2)cc1NC(=O)c1ccccc1O [I-130] | 10 to 100 µM |
| Cc1ccccc1Nc1ncc(-c2cnn(C)c2)cc1NC(=O)c1cc2ccccc2s1 [I-131] | 10 to 100 µM |
| Cc1ccccc1Nc1ncc(-c2cnn(C)c2)cc1NC(=O)c1cc2ccccc2n1C [I-132] | 1 to 10 µM |
| O=C(Nc1cccnc1NCc1ccccc1)c1csc2ccccc12 [I-133] | 10 to 100 µM |
| COCCNc1ncccc1NC(=O)c1csc2ccccc12 [I-134] | 10 to 100 µM |
| CNC(=O)c1cnc(Nc2ccccc2C)c(NC(=O)Cc2ccccc2Cl)c1 [I-140] | 10 to 100 µM |

| SMILES | IC50 |
| --- | --- |
| CNC(=O)c1cnc(Nc2ccccc2C)c(NC(=O)c2cc(F)cc(F)c2)c1 [I-141] | 1 to 10 µM |
| CNC(=O)c1cnc(Nc2ccccc2C)c(NC(=O)c2cccc(F)c2)c1 [I-143] | 10 to 100 µM |
| Cc1ccccc1Nc1ncc(-c2cnn(C)c2)cc1NC(=O)c1csc2ccc(Cl)cc12 [I-145] | 1 to 10 µM |
| Cc1ccccc1Nc1ncc(-c2cnn(CCO)c2)cc1NC(=O)c1cc(F)cc(C(F)(F)F)c1 [I-147] | 0.5 to 1 µM |
| COCCn1cc(-c2cnc(Nc3ccccc3C)c(NC(=O)c3cc(F)cc(C(F)(F)F)c3)c2)cn1 [I-148] | 0.5 to 1 µM |
| CC(C)(C)OC(=O)N1CCC(Nc2ncccc2NC(=O)c2csc3ccccc23)CC1 [I-151] | 10 to 100 µM |
| O=C(Nc1cccnc1NC1CCNCC1)c1csc2ccccc12 [I-152] | 10 to 100 µM |
| O=C(Nc1cccnc1NC1CCCCC1)c1csc2ccccc12 [I-153] | 10 to 100 µM |
| Cc1ccccc1Nc1ncc(NC(=O)CC#N)cc1NC(=O)c1cc(F)cc(C(F)(F)F)c1 [I-154] | 1 to 10 µM |
| Cc1ccccc1Nc1ncc(NCC#N)cc1NC(=O)c1cc(F)cc(C(F)(F)F)c1 [I-155] | 0.5 to 1 µM |
| CNC(=O)c1cnc(Nc2ccccc2C)c(NC(=O)c2ccnc3ccccc23)c1 [I-157] | 10 to 100 µM |
| CNC(=O)c1cnc(Nc2ccccc2C)c(NC(=O)c2nn(C)c3ccccc23)c1 [I-158] | 10 to 100 µM |
| CNC(=O)c1cnc(Nc2ccccc2C)c(NC(=O)C2(c3ccc(C)cc3)CC2)c1 [I-160] | 10 to 100 µM |
| CNC(=O)c1cnc(Nc2ccccc2C)c(NC(=O)Cc2cc(F)cc(F)c2)c1 [I-161] | 10 to 100 µM |
| CCC(C(=O)Nc1cc(C(=O)NC)cnc1Nc1ccccc1C)c1ccccc1 (stereo not shown) [I-162] | 10 to 100 µM |
| CNC(=O)c1cnc(Nc2ccccc2C)c(NC(=O)C2CCN(C(C)=O)CC2)c1 [I-163] | 10 to 100 µM |
| CNC(=O)c1cnc(Nc2ccccc2C)c(NC(=O)Cc2c(F)ccc(F)c2F)c1 [I-164] | 10 to 100 µM |
| CNC(=O)c1cnc(Nc2ccccc2C)c(NC(=O)[C@@H]2C[C@H]2c2ccccc2)c1 [I-165] | 10 to 100 µM |
| CNC(=O)c1cnc(Nc2ccccc2C)c(NC(=O)C(c2ccccc2)C(C)C)c1 (stereo not shown) [I-166] | 10 to 100 µM |
